Measured values: patent US7538073B2, “Pyrazoylcarboxanilides as fungicides” (Bayer CropScience AG, priority 2001, dated 2009)

Test system: not listed separately
Assay: logP by HPLC, reversed-phase column (C 18), EEC Directive 79/831 Annex V.A8
Assay type: physicochemical
Settings: reversed-phase HPLC column (C 18), acidic range pH 2.3, 0.1% aqueous phosphoric acid/acetonitrile gradient, 43° C.
Experimental: The logP values given in the preparation examples and tables above are determined in accordance with EEC Directive 79/831 Annex V.A8 by HPLC (High Performance Liquid Chromatography) using a reversed-phase column (C 18). Temperature: 43° C. The determination is carried out in the acidic range at pH 2.3 using the mobile phases 0.1% aqueous phosphoric acid and acetonitrile; linear gradient from 10% acetonitrile to 90% acetonitrile. The calibration is carried out using unbranched alkan-2-ones (having 3 to 16 carbon atoms), with known logP values (determination of the logp values by the retention times using linear interpolation between two successive alkanones).

Point of comparison: Cc1nn(C)c(F)c1C(=O)Nc1ccccc1C(C)(O)C(C)C (centres unmarked) [IV-5], chromatographic logP 2.41. Against it:
- CCC(c1ccccc1NC(=O)c1c(C)nn(C)c1F)C1CCCCC1 (centres unmarked) [Example I-33] — higher, 4.34
- Cc1nn(C)c(F)c1C(=O)Nc1ccccc1C(C)C1CCCCC1 (centres unmarked) [Example I-42] — higher, 3.82
- CCC(O)(CC)c1ccccc1NC(=O)c1c(C)nn(C)c1F [IV-1, N-[2-(1-ethyl-1-hydroxypropyl)phenyl]-5-fluoro-1,3-dimethyl-1H-pyrazol-4-carboxamide] — within 0.2 log units, 2.47
- Cc1nn(C)c(F)c1C(=O)Nc1ccccc1C(C)C(C)C (centres unmarked) [Example I-18] — higher, 2.92
- CCC(O)(CC(C)C)c1ccccc1NC(=O)c1c(C)nn(C)c1F (centres unmarked) [IV-13] — higher, 3.11
- C=Cc1ccccc1NC(=O)c1c(C)nn(C)c1F [Example I-20] — lower, 1.92
- Cc1nn(C)c(F)c1C(=O)Nc1ccccc1C#CCC1CCCCC1 [Example I-52] — higher, 5.08
- CCCC(C)c1cccc(F)c1NC(=O)c1c(C)nn(C)c1F (centres unmarked) [Example I-50] — higher, 2.86
- Cc1nn(C)c(F)c1C(=O)Nc1ccccc1I [Example V-1, 5-fluoro-N-(2-iodophenyl)-1,3-dimethyl-1H-pyrazol-4-carboxamide] — within 0.2 log units, 2.44
- CCC(CC(C)C)c1ccccc1NC(=O)c1c(C)nn(C)c1F (centres unmarked) [Example I-28] — higher, 3.73
- C=C(C)c1ccccc1NC(=O)c1c(C)nn(C)c1F [Example I-23] — within 0.2 log units, 2.57
- Cc1nn(C)c(F)c1C(=O)Nc1ccccc1C(C)(O)CC(C)C (centres unmarked) [IV-6] — higher, 2.68
- CCCC/C=C(\C)c1ccccc1NC(=O)c1c(C)nn(C)c1F [Example 5, 5-fluoro-1,3-dimethyl-N-[2-(1-methyl-1-hexenyl)phenyl]-1H-pyrazol-4-carboxamide] — higher, 4.36
- Cc1nn(C)c(F)c1C(=O)Nc1ccccc1C(C)(F)C(C)C (centres unmarked) [Example I-46] — higher, 3.09
- CCC(C)C(CC)c1ccccc1NC(=O)c1c(C)nn(C)c1F (centres unmarked) [Example I-29] — higher, 3.74
- Cc1nn(C)c(F)c1C(=O)Nc1ccccc1C=CC1CC1(F)F (centres unmarked) [Example 4, N-{2-[2-(2,2-difluorocyclopropyl)ethenyl]-phenyl}-5-fluoro-1,3-dimethyl-1H-pyrazol-4-carboxamide] — within 0.2 log units, 2.59
- Cc1nn(C)c(F)c1C(=O)Nc1c(F)cccc1C(C)CC(C)C (centres unmarked) [Example I-44] — higher, 3.16
- CCCCCC(C)c1ccccc1NC(=O)c1c(C)nn(C)c1F (centres unmarked) [Example I-22] — higher, 3.83
- Cc1nn(C)c(F)c1C(=O)Nc1ccccc1C(C)CCCC(C)C (centres unmarked) [Example I-34] — higher, 4.22
- Cc1nn(C)c(F)c1C(=O)Nc1ccccc1C(C)CC(C)C (centres unmarked) [Example I-21] — higher, 3.26
- Cc1nn(C)c(F)c1C(=O)Nc1ccc(F)cc1C(C)CC(C)C (centres unmarked) [Example I-41] — higher, 3.32
- CC(=O)c1ccccc1NC(=O)c1c(C)nn(C)c1F [VIII-1, N-(2-acetylphenyl)-5-fluoro-1,3-dimethyl-1H-pyrazol-4-carboxamide] — lower, 2.15
- CCCCC(c1ccccc1NC(=O)c1c(C)nn(C)c1F)C(C)C (centres unmarked) [Example I-39] — higher, 4.24
- CCCCC(CC)c1ccccc1NC(=O)c1c(C)nn(C)c1F (centres unmarked) [Example I-31] — higher, 3.85
- CCCC(CC)c1ccccc1NC(=O)c1c(C)nn(C)c1F (centres unmarked) [Example I-32] — higher, 3.42
- Cc1nn(C)c(F)c1C(=O)Nc1ccccc1C(C)(F)CCCCCl (centres unmarked) [Example I-47] — higher, 4.01
- Cc1nn(C)c(F)c1C(=O)Nc1ccccc1C(C)CC1CCCCC1 (centres unmarked) [Example I-45] — higher, 4.2
- CCCC(C)c1cc(F)ccc1NC(=O)c1c(C)nn(C)c1F (centres unmarked) [Example I-43] — higher, 3.05
- CCC(C)C(C)(F)c1ccccc1NC(=O)c1c(C)nn(C)c1F (centres unmarked) [Example I-48] — higher, 3.44
- CCC(c1ccccc1NC(=O)c1c(C)nn(C)c1F)C(C)C (centres unmarked) [Example I-38] — higher, 3.37
- C/C=C(\CC)c1ccccc1NC(=O)c1c(C)nn(C)c1F [Example I-24] — higher, 3.45
- CCCC(C)c1ccccc1NC(=O)c1c(C)nn(C)c1F (centres unmarked) [Example I-17] — higher, 3.01
- CCC(CC)c1ccccc1NC(=O)c1c(C)nn(C)c1F [Example 2, N-[2-(1-ethylpropyl)phenyl]-5-fluoro-1,3-dimethyl-1H-pyrazol-4-carboxamide] — higher, 3.01
- Cc1nn(C)c(F)c1C(=O)Nc1ccccc1C#CC(C)C [Example I-53] — higher, 3.59
- CC(C)=CC(C)CCC(C)c1ccccc1NC(=O)c1c(C)nn(C)c1F (centres unmarked) [Example I-37] — higher, 4.49
- Cc1nn(C)c(F)c1C(=O)Nc1ccc(Cl)cc1C(C)CC(C)C (centres unmarked) [Example I-25] — higher, 3.82
- Cc1nn(C)c(F)c1C(=O)Nc1ccccc1C(C)CCC(C)C (centres unmarked) [Example I-36] — higher, 3.76
- CCCC(C)CC(C)c1ccccc1NC(=O)c1c(C)nn(C)c1F (centres unmarked) [Example I-35] — higher, 4.11
- CCCC(C)(O)c1ccccc1NC(=O)c1c(C)nn(C)c1F (centres unmarked) [IV-2] — within 0.2 log units, 2.4
- C=C(c1ccccc1NC(=O)c1c(C)nn(C)c1F)C(C)C [Example I-10] — higher, 3.37
- Cc1nn(C)c(F)c1C(=O)Nc1c(C(C)CC(C)C)cccc1C(C)CC(C)C (centres unmarked) [Example I-54] — higher, 4.9
- CCC(C)C(C)c1ccccc1NC(=O)c1c(C)nn(C)c1F (centres unmarked) [Example I-40] — higher, 3.28
- Cc1nn(C)c(F)c1C(=O)Nc1ccccc1C(C)(F)CC(C)C (centres unmarked) [Example I-49] — higher, 3.47
- C=C(c1ccccc1NC(=O)c1c(C)nn(C)c1F)C1CCCCC1 [Example I-9] — higher, 4.36
- CCCCCC(C)(O)c1ccccc1NC(=O)c1c(C)nn(C)c1F (centres unmarked) [IV-3] — higher, 3.13
- CCC(C)CC(C)c1ccccc1NC(=O)c1c(C)nn(C)c1F (centres unmarked) [Example I-26] — higher, 3.67
- Cc1nn(C)c(F)c1C(=O)Nc1ccc(Cl)cc1C(C)(O)C(C)C (centres unmarked) [IV-12] — higher, 2.99
- CCCCCCCCC(C)c1ccccc1NC(=O)c1c(C)nn(C)c1F (centres unmarked) [Example I-30] — higher, 5.29
- Cc1nn(C)c(F)c1C(=O)Nc1ccccc1C(C)(O)C1CCCCC1 (centres unmarked) [IV-4] — higher, 3.1
- Cc1nn(C)c(F)c1C(=O)Nc1ccc(Cl)cc1C(C)C(C)C (centres unmarked) [Example I-19] — higher, 3.43
- Cc1nn(C)c(F)c1C(=O)Nc1ccccc1C(C)CC1CCCC1 (centres unmarked) [Example I-27] — higher, 3.82
- C=C(c1cc(Cl)ccc1NC(=O)c1c(C)nn(C)c1F)C(C)C [Example I-16] — higher, 4.11

Test system: Pyrenophora teres
Assay: Pyrenophora teres test (barley)/protective
Assay type: in vivo
Settings: protective, application rate 250 g/ha, evaluation 7 days after inoculation
Experimental: To produce a suitable preparation of active compound, 1 part by weight of active compound is mixed with the stated amount of solvent and emulsifier, and the concentrate is diluted with water to the desired concentration.
To test for protective activity, young plants are sprayed with the preparation of active compound at the stated application rate. After the spray coating has dried on, the plants are sprayed with a conidia suspension of Pyrenophora teres. The plants remain in an incubation cabin at 20° C. and 100% relative atmospheric humidity for 48 hours.
The plants are then placed in a greenhouse at a temperature of about 20° C. and a relative atmospheric humidity of about 80%.
Evaluation is carried out 7 days after the inoculation. 0% means an efficacy which corresponds to that of the control, whereas an efficacy of 100% means that no infection is observed.

Point of comparison: CCCC(C)c1ccccc1NC(=O)c1c(C)nn(C)c1F (centres unmarked) [drawing 95], Efficacy in % 100%. Against it:
- Cc1nn(C)c(F)c1C(=O)Nc1ccccc1C(C)C(C)C (centres unmarked) [drawing 96] — the same, 100%

Test system: Podosphaera leucotricha
Assay: Podosphaera test (apple)/protective
Assay type: in vivo
Settings: protective, application rate 100 g/ha, evaluation 10 days after inoculation
Experimental: (§1) To produce a suitable preparation of active compound, 1 part by weight of active compound is mixed with the stated amounts of solvent and emulsifier, and the concentrate is diluted with water to the desired concentration.
To test for protective activity, young plants are sprayed with the preparation of active compound at the stated application rate. After the spray coating has dried on, the plants are inoculated with an aqueous spore suspension of the apple mildew pathogen Podosphaera leucotricha. The plants are then placed in a greenhouse at about 23° C. and a relative atmospheric humidity of about 70%.
Evaluation is carried out 10 days after the inoculation. 0% means an efficacy which corresponds to that of the control, whereas an efficacy of 100% means that no infection is observed.

Point of comparison: CCCC(C)c1ccccc1NC(=O)c1c(C)nn(C)c1F (centres unmarked) [drawing 98], Efficacy in % 100%. Against it:
- C=C(c1ccccc1NC(=O)c1c(C)nn(C)c1F)C(C)C [drawing 97] — lower, 90%
- Cc1nn(C)c(F)c1C(=O)Nc1ccccc1C(C)C(C)C (centres unmarked) [drawing 99] — the same, 100%
- Cc1nn(C)c(F)c1C(=O)Nc1ccc(Cl)cc1C(C)C(C)C (centres unmarked) [drawing 100] — the same, 100%

Test system: Altemaria solani
Assay: Alternaria test (tomato)/protective
Assay type: in vivo
Settings: protective, application rate 750 g/ha, evaluation 7 days after inoculation
Experimental: as §1
To test for protective activity, young tomato plants are sprayed with the preparation of active compound at the stated application rate. 1 day after the treatment, the plants are inoculated with a spore suspension of Altemaria solani and then remain at 100% rel. humidity and 20° C. for 24 h. The plants then remain at 96% rel. atmospheric humidity and a temperature of 20° C.
Evaluation was carried out 7 days after the inoculation. 0% means an efficacy which corresponds to that of the control, whereas an efficacy of 100% means that no infection is observed.

Point of comparison: Cc1nn(C)c(F)c1C(=O)Nc1ccccc1C(C)C(C)C (centres unmarked) [drawing 102], Efficacy in % 95%. Against it:
- Cc1nn(C)c(F)c1C(=O)Nc1ccccc1C(C)CC(C)C (centres unmarked) [drawing 103] — higher, 100%
- CCCC(C)c1ccccc1NC(=O)c1c(C)nn(C)c1F (centres unmarked) [drawing 101] — the same, 95%
